{"source": "patent US8378085B2", "about": "“Bacterial ATP synthase binding domain” (priority 2004, dated 2013)", "key": {"[1]": {"system": "Corynebacterium", "assay": "microbe, parasite or virus in culture", "assay_type": "cell-based"}, "[2]": {"system": "M. tuberculosis in log-phase growth", "assay_type": "cell-based, Mycobacterium tuberculosis"}, "[3]": {"system": "Nocardia", "assay": "microbe, parasite or virus in culture", "assay_type": "cell-based"}, "[4]": {"system": "M. abscessus", "assay": "microbe, parasite or virus in culture", "assay_type": "cell-based, Mycobacterium abscessus", "settings": "Mycobacteroides abscessus, read-out: MIC Median values"}, "[5]": {"system": "M. fortuitum", "assay": "microbe, parasite or virus in culture", "assay_type": "cell-based, Mycobacterium fortuitum"}, "[6]": {"system": "Helicobacter pylori", "assay_type": "cell-based", "settings": "Gram negative Helicobacter pylori"}, "[7]": {"system": "wild type M. tuberculosis", "assay_type": "cell-based, Mycobacterium tuberculosis"}, "[8]": {"system": "M. kansasii", "assay": "microbe, parasite or virus in culture", "assay_type": "cell-based", "settings": "Mycobacterium kansasii, read-out: MIC Median values"}, "[9]": {"system": "Enterococcus faecalis", "assay_type": "cell-based", "settings": "Gram positive Enterococcus faecalis"}, "[10]": {"system": "Haemophilus influenzae", "assay_type": "cell-based", "settings": "Gram negative Haemophilus influenzae"}, "[11]": {"system": "M. bovis", "assay": "microbe, parasite or virus in culture", "assay_type": "cell-based", "settings": "Mycobacterium tuberculosis variant bovis, read-out: MIC Median values"}, "[12]": {"system": "M. avium complex", "assay": "microbe, parasite or virus in culture", "assay_type": "cell-based", "settings": "Mycobacterium avium, 7 strains, read-out: MIC Median values"}, "[13]": {"system": "M. smegmatis transformed with mutant atpE (D32V)", "assay_type": "cell-based", "settings": "wild-type M. smegmatis transformed with plasmid containing mutant F0 fragment (D32V); MIC practically identical to resistant strain R09"}, "[14]": {"system": "M. smegmatis", "assay": "MIC against M. smegmatis", "assay_type": "cell-based, Mycobacterium smegmatis", "settings": "Mycolicibacterium smegmatis, 7 strains, read-out: MIC Median values", "description": "Table. 1 The minimum inhibitory concentrations (MICs) of the lead DARQ compound (J), that inhibited 90% of the growth of different mycobacterial species. the number of strains tested were n=1, unless otherwise indicated."}, "[15]": {"system": "M. tuberculosis", "assay": "microbe, parasite or virus in culture", "assay_type": "cell-based", "settings": "Mycobacterium tuberculosis"}, "[16]": {"system": "Escherichia coli", "assay_type": "cell-based", "settings": "Gram negative Escherichia coli"}, "[17]": {"system": "M. marinum", "assay": "microbe, parasite or virus in culture", "assay_type": "cell-based", "settings": "Mycobacterium marinum, read-out: MIC Median values"}, "[18]": {"system": "MDR-TB strains and fully drug-susceptible strains", "assay_type": "cell-based, Mycobacterium tuberculosis"}, "[19]": {"system": "Staphylococcus aureus", "assay": "microbe, parasite or virus in culture", "assay_type": "cell-based", "settings": "Staphylococcus aureus including methicillin-resistant strains"}, "[20]": {"system": "Streptococcus pneumoniae", "assay_type": "cell-based", "settings": "Gram positive Streptococcus pneumoniae"}, "[21]": {"system": "M. avium complex", "settings": "statement in discussion; cited from earlier work"}}, "note": "“And” between values parts separate entries of the source, which are not always exact repeats. Identical values can stand only once. Like-named read-outs stand apart in the source and are kept apart here."}
{"smiles": "COc1nc2ccc(Br)cc2cc1[C@@H](c1ccccc1)[C@@](O)(CCN(C)C)c1cccc2ccccc12", "note": "[J]", "values": [{"measurement": "MIC", "setting": "[1]", "value": 4, "unit": "µg/mL"}, {"measurement": "reduction in bacterial counts", "setting": "[2]", "value": "10^3 log"}, {"measurement": "MIC", "setting": "[3]", "value": "> 4", "unit": "µg/mL"}, {"measurement": "MIC", "setting": "[4]", "value": 0.25, "unit": "µg/mL"}, {"measurement": "MIC Median values", "setting": "[5]; M. fortuitum resistant to fluoroquinolone, 2 strains", "value": 0.010, "unit": "µg/mL"}, {"measurement": "MIC", "setting": "[5]; Mycolicibacterium fortuitum, M. fortuitum, 3 strains, read-out: MIC Median values", "value": 0.01, "unit": "µg/mL"}, {"measurement": "activity", "setting": "[6]", "value": "not active"}, {"measurement": "effect on ATP production (total cellular ATP)", "setting": "[7]", "value": "dose dependent decrease in ATP production"}, {"measurement": "MIC", "setting": "[8]", "value": 0.003, "unit": "µg/mL"}, {"measurement": "activity", "setting": "[9]", "value": "not active"}, {"measurement": "activity", "setting": "[10]", "value": "not active"}, {"measurement": "MIC", "setting": "[11]", "value": 0.003, "unit": "µg/mL"}, {"measurement": "MIC", "setting": "[12]", "value": 0.01, "unit": "µg/mL"}, {"measurement": "susceptibility of transformed cells", "setting": "[13]", "value": "resistant"}, {"measurement": "MIC", "setting": "[14]", "value": 0.007, "unit": "µg/mL"}, {"measurement": "MIC", "setting": "[15]; H37RV, read-out: MIC Median values", "value": 0.03, "unit": "µg/mL"}, {"measurement": "MIC", "setting": "[15]; read-out: median MIC", "value": 0.06, "unit": "µg/mL"}, {"measurement": "activity", "setting": "[16]", "value": "not active"}, {"measurement": "MIC", "setting": "[17]", "value": 0.003, "unit": "µg/mL"}, {"measurement": "isolates of MDR-TB found susceptible", "setting": "[18]", "value": "43% and 57%"}, {"measurement": "strains with MIC below 0.010 μg/ml", "setting": "[18]", "value": "only one of 10"}, {"measurement": "susceptibility of strains", "setting": "[18]", "value": "all strains were susceptible"}, {"measurement": "MIC", "setting": "[19]", "value": "> 32", "unit": "µg/mL"}, {"measurement": "activity", "setting": "[20]", "value": "not active"}]}
{"smiles": "NNC(=O)c1ccncc1", "note": "[isoniazid]", "values": [{"measurement": "effect on ATP production (total cellular ATP)", "setting": "[7]", "value": "no effect"}, {"measurement": "activity against MAC", "setting": "[21]", "value": "no activity"}]}
